Test results: patent US7217730B2, “Method for the use of pyranoindole derivatives to treat infection with Hepatitis C virus” (Wyeth, priority 2002, dated 2007)

Target: T1, NS5B from the BK strain (genotype 1b) (Hepatitis C virus genotype 1b, UniProt P26663)
T1 construct: NS5B from the BK strain (genotype 1b) is expressed in E. coli as a protein in which the 21 C-terminal amino acids are replaced; made in house; host or cells: E. coli
Experiment: Hepatitis C polymerase inhibition, NS5B BK strain, 33P-GTP filter assay
Type: biochemical
Details: Table 1A; for inhibition at 20 µM: 20 μM compound, read-out: HCV pol % inh at 20 μM; for IC50: NS5B BK strain, read-out: HCV pol BK IC50
Source text: The ability of the compounds of the present invention to inhibit Hepatitis C Polymerase was established by the following experimental procedure: • NS5B from the BK strain (genotype 1b) is expressed in E. coli as a protein in which the 21 C-terminal amino acids are replaced with a short linker and a hexahistidine tag ([…]). The purified protein is mixed with radioactive nucleotides and allowed to replicate a heteropolymeric RNA substrate, primed by an endogenous short hairpin, resulting in an approximately 760 nt product. The radioactive product is captured on a filter and quantitated after removal of the unincorporated nucleotides.
Reagents: • 10 mM uridine 5′-triphosphate (UTP) (Promega # p116B) • 10 mM adenine 5′-triphosphate (ATP) (Promega # p113B) • 10 mM cytidine 5′-triphosphate (CTP) (Promega # p114B) • 10 mM guanine 5′-triphosphate (GTP) (Promega # p115B) • Bovine Serum Albumin (BSA) 10 mg/ml NEB (100× at 10 mg/ml) #007-BSA • RNasein (Promega #N251X) 40 U/μl • A-[33P]-GTP (NEN-easytides NEG/606H 3000 Ci/mmol, 370 MBq/ml, 10 mCi/ml) • Falcon polypropylene 96 well plates (Becton Dickinson # 351190) • Millipore Multiscreen assasy system-96 well-filtration plate #MADE NOB 50 • Optiphase Supermix (Wallac) formulated by Fisher • Millipore Multiscreen liner for use in microbeta 1450-106 casette [(Wallac) Perkin Elmer #1450-433] • 1 M(N-[2-hydroxyethyl]piperazine-N′-[2-ethanesulfonic acid]) (HEPES), pH 7.3 • Amersham Pharmacia Biotec (US16924-500 ml) • 1 M MgCl2 (SIGMA #M1028) • Dithiothreitol (DTT) (solid) (SIGMA #D9779) • RNase free water (GIBCO-BRL #10977-023) • Dimethyl sulfoxide (Aldrich #27685-5) • Basilen Blue (Sigma, B5520) • 0.5M ethylenediaminetetraacetic acid (EDTA), pH 8 (GIBCO-BRL #15575-020) • Dibasic sodium phosphate (7-hydrate) (Na2HPO4.7H2O; Baker#3824-07) • Phosphoric acid (Baker, #0262.02)
Further reagent preparation: • 0.5 M Na Phosphate buffer. Per liter, weigh 134 gr Na2HPO4.7H2O, add water to 900 ml. Adjust pH to 7.0 with phosphoric acid. Top off with water to 1 L. • Dilute nucleotides 1:1000 to 10 μM (GTP and CTP) or 1:100 to 100 μM (ATP and UTP) into RNase free water.
Procedure: • (1) Compounds 10 μl at 10 μg/ml in 15% dimethylsulfoxide (DMSO)
When starting from 100 μg/ml compound stock in […]: • Dispense 5 μl 30% DMSO per well • Dispense 5 μl compound (100 μg/ml) per well.
When starting from 50 μg/ml compound stock in 15% DMSO: • Add 10 μl compound per well. • (2) Enzyme Mix:
Add 20 μl enzyme mix into each well of the assay plate. Incubate compound and enzyme at room temperature for 15 minutes • (3) Template mix—prepare ahead
Spin down a tube of RNA (5 μg/tube stored in 75% ethanol and 0.3 M sodium acetate) in a microcentrifuge for 20 minutes at 4° C. One tube is enough for 1–1.5 plates. Remove as much ethanol from the tube as possible by inverting the tube. Be gentle, pellet RNA may not adhere to the tube. Vacuum dry the RNA. Resuspend the RNA by adding 1 ml of DEPC water, close the cap of the tube tightly. To dissolve RNA, incubate RNA solution on ice for ˜60 minutes and gently vortex. Spin briefly to ensure all RNA solution is down to the bottom of the tube before opening cap. Gently transfer RNA solution into a 5 ml or larger tube. Add another 3 ml of DEPC water (total 4 ml of volume).
Add the following volumes of reagents
Add 20 μl template mix per reaction (i.e. 20 ng of pOF per reaction or ˜3 nM) • (4) Incubate reaction at room temperature (22–25° C.) for 2 hours. • (5) Stop reaction by adding 50 μl of 170 mM EDTA. • Final concentration of EDTA is 85 mM. • (6) Prewet filters of Millipore multiscreen assay plate by adding 200 μl of 0.5 M sodium phosphate buffer, pH 7.0 into each well. Let stand at room temperature for 2–3 minutes. • (7) Place the multiscreen filter plate onto a Millipore Manifold and turn on vacuum to allow buffer to flow through. Turn off vacuum. Transfer 80 μl of the reaction product into each well of the filter plate. Let stand for 2–3 minutes. […]

T1 sequence (P26663 2420-2989): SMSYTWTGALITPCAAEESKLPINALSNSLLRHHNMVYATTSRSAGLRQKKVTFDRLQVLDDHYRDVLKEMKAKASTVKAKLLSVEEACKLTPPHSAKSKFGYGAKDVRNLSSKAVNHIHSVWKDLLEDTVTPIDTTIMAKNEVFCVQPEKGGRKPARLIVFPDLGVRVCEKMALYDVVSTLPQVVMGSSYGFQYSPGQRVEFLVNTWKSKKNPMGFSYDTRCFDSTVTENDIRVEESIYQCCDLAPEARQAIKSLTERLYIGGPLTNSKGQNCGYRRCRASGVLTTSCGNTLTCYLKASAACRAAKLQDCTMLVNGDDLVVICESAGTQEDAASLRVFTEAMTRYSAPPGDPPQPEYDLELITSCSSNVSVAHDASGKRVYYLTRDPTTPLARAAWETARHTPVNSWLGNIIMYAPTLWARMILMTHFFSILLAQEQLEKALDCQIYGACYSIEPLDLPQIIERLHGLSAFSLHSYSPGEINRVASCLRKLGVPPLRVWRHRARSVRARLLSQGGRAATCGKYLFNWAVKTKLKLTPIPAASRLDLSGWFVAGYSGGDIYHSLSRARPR

O=C(O)CC1(c2ccccc2F)OCCc2c1[nH]c1c(Cl)ccc(Cl)c21 (centres unmarked) [Example 56, [5,8-dichloro-1-(2-fluorophenyl)-1,3,4,9-tetrahydropyrano[3,4-b]indol-1-yl]acetic acid]
inhibition at 20 µM: 3% | IC50: > 20 µM

O=C(O)CC1(c2ccc(C(=O)O)cc2)OCCc2c1[nH]c1c(Cl)ccc(Cl)c21 (centres unmarked) [Example 57, 4-[1-(carboxymethyl)-5,8-dichloro-1,3,4,9-tetrahydropyrano[3,4-b]indol-1-yl]benzoic acid]
inhibition at 20 µM: 56% | IC50: 3 µM

CCCC1(CC(=O)O)OCCc2c1[nH]c1cccc(C#N)c21 (centres unmarked) [Example 58, (5-cyano-1-propyl-1,3,4,9-tetrahydro-pyrano[3,4-b]indol-1-yl)acetic acid]
inhibition at 20 µM: 78% | IC50: 6.9 µM

CC(C)C1(CC(=O)O)OCCc2c1[nH]c1cccc(C#N)c21 (centres unmarked) [Example 59, (5-cyano-1-isopropyl-1,3,4,9-tetrahydropyrano[3,4-b]indol-1-yl)acetic acid]
inhibition at 20 µM: 23% | IC50: > 20 µM

C/C=C/CCC1(CC(=O)O)OCCc2c1[nH]c1cccc(C#N)c21 (centres unmarked) [Example 60, {5-cyano-1-[(3E)-pent-3-enyl]-1,3,4,9-tetrahydropyrano[3,4-b]indol-1-yl}acetic acid]
inhibition at 20 µM: 15% | IC50: > 20 µM

N#Cc1cccc2[nH]c3c(c12)CCOC3(CC(=O)O)c1ccoc1 (centres unmarked) [Example 61, [5-cyano-1-(3-furyl)-1,3,4,9-tetrahydropyrano[3,4-b]indol-1-yl]acetic acid]
inhibition at 20 µM: 18% | IC50: > 20 µM

N#Cc1cccc2[nH]c3c(c12)CCOC3(CC(=O)O)c1ccccc1 (centres unmarked) [Example 62, (5-cyano-1-phenyl-1,3,4,9-tetrahydropyrano[3,4-b]indol-1-yl)acetic acid]
inhibition at 20 µM: 32% | IC50: > 20 µM

COc1cc(C2(CC(=O)O)OCCc3c2[nH]c2cccc(C#N)c32)cc(OC)c1OC (centres unmarked) [Example 63, [5-cyano-1-(3,4,5-trimethoxyphenyl)-1,3,4,9-tetrahydropyrano[3,4-b]indol-1-yl]acetic acid]
inhibition at 20 µM: 30% | IC50: > 20 µM

N#Cc1cccc2[nH]c3c(c12)CCOC3(CC(=O)O)c1ccc([N+](=O)[O-])cc1 (centres unmarked) [Example 64, [5-cyano-1-(4-nitrophenyl)-1,3,4,9-tetrahydropyrano[3,4-b]indol-1-yl]acetic acid]
inhibition at 20 µM: 18% | IC50: > 20 µM

N#Cc1cccc2[nH]c3c(c12)CCOC3(CC(=O)O)c1cccc([N+](=O)[O-])c1 (centres unmarked) [Example 65, [5-cyano-1-(3-nitrophenyl)-1,3,4,9-tetrahydropyrano[3,4-b]indol-1-yl]acetic acid]
inhibition at 20 µM: 27% | IC50: > 20 µM

N#Cc1cccc2[nH]c3c(c12)CCOC3(CC(=O)O)c1ccccc1F (centres unmarked) [Example 66, [5-cyano-1-(2-fluorophenyl)-1,3,4,9-tetrahydropyrano[3,4-b]indol-1-yl]acetic acid]
inhibition at 20 µM: 28% | IC50: > 20 µM

CCCCC1(CC(=O)O)OCCc2c1[nH]c1c(Cl)ccc(Cl)c21 (centres unmarked) [Example 67, (1-butyl-5,8-dichloro-1,3,4,9-tetrahydropyrano[3,4-b]indol-1-yl)acetic acid]
inhibition at 20 µM: 78% | IC50: 0.76 µM

CCCCC1(CC(=O)O)OCCc2c1[nH]c1cccc(Br)c21 (centres unmarked) [Example 68, (5-bromo-1-butyl-1,3,4,9-tetrahydropyrano[3,4-b]indol-1-yl)acetic acid]
inhibition at 20 µM: 61% | IC50: 10.3 µM

CCCCC1(CC(=O)O)OCCc2c1[nH]c1cccc(Cl)c21 (centres unmarked) [Example 69, (1-butyl-5-chloro-1,3,4,9-tetrahydropyrano[3,4-b]indol-1-yl)acetic acid]
IC50: 5.5 µM

COC(=O)CC1(CC(=O)O)OCCc2c1[nH]c1cccc(Cl)c21 (centres unmarked) [Example 70, [5-chloro-1-(2-methoxy-2-oxoethyl)-1,3,4,9-tetrahydropyrano[3,4-b]indol-1-yl]acetic acid]
inhibition at 20 µM: 22% | IC50: > 5 µM

O=C(O)CC1(CC(=O)O)OCCc2c1[nH]c1cccc(Cl)c21 [Example 71, [1-(carboxymethyl)-5-chloro-1,3,4,9-tetrahydropyrano[3,4-b]indol-1-yl]acetic acid]
inhibition at 20 µM: 45% | IC50: > 5 µM

CC1(CC(=O)O)OCCc2c1[nH]c1c(Cl)cccc21 (centres unmarked) [Example 72, (8-chloro-1-methyl-1,3,4,9-tetrahydropyrano[3,4-b]indol-1-yl)acetic acid]
inhibition at 20 µM: 45% | IC50: > 20 µM

CCC1(CC(=O)O)OCCc2c1[nH]c1c(Cl)cccc21 (centres unmarked) [Example 73, (8-chloro-1-ethyl-1,3,4,9-tetrahydropyrano[3,4-b]indol-1-yl)acetic acid]
inhibition at 20 µM: 22% | IC50: > 20 µM

CCCC1(CC(=O)O)OCCc2c1[nH]c1c(Cl)cccc21 (centres unmarked) [Example 74, (8-chloro-1-propyl-1,3,4,9-tetrahydropyrano[3,4-b]indol-1-yl)acetic acid]
inhibition at 20 µM: 69% | IC50: 17.9 µM

CC(C)C1(CC(=O)O)OCCc2c1[nH]c1c(Cl)cccc21 (centres unmarked) [Example 75, (8-chloro-1-isopropyl-1,3,4,9-tetrahydropyrano[3,4-b]indol-1-yl)acetic acid]
inhibition at 20 µM: 17% | IC50: > 20 µM

CCCCC1(CC(=O)O)OCCc2c1[nH]c1c(Cl)cccc21 (centres unmarked) [Example 76, (1-butyl-8-chloro-1,3,4,9-tetrahydropyrano[3,4-b]indol-1-yl)acetic acid]
inhibition at 20 µM: 29% | IC50: > 20 µM

C/C=C/CCC1(CC(=O)O)OCCc2c1[nH]c1c(Cl)cccc21 (centres unmarked) [Example 77, {8-chloro-1-[(3E)-pent-3-enyl]-1,3,4,9-tetrahydropyrano[3,4-b]indol-1-yl}acetic acid]
inhibition at 20 µM: 16% | IC50: > 20 µM

O=C(O)CC1(c2ccccc2)OCCc2c1[nH]c1c(Cl)cccc21 (centres unmarked) [Example 78, (8-chloro-1-phenyl-1,3,4,9-tetrahydropyrano[3,4-b]indol-1-yl)acetic acid]
inhibition at 20 µM: 26% | IC50: > 20 µM

O=C(O)CC1(c2ccoc2)OCCc2c1[nH]c1c(Cl)cccc21 (centres unmarked) [Example 79, [8-chloro-1-(3-furyl)-1,3,4,9-tetrahydropyrano[3,4-b]indol-1-yl]acetic acid]
inhibition at 20 µM: 40% | IC50: > 20 µM

CC1(CC(=O)O)OCCc2c1[nH]c1c(Br)cccc21 (centres unmarked) [Example 80, (8-bromo-1-methyl-1,3,4,9-tetrahydropyrano[3,4-b]indol-1-yl)acetic acid]
inhibition at 20 µM: 35% | IC50: > 20 µM

CCC1(CC(=O)O)OCCc2c1[nH]c1c(Br)cccc21 (centres unmarked) [Example 81, (8-bromo-1-ethyl-1,3,4,9-tetrahydropyrano[3,4-b]indol-1-yl)acetic acid]
inhibition at 20 µM: 27% | IC50: > 20 µM

CCCC1(CC(=O)O)OCCc2c1[nH]c1c(Br)cccc21 (centres unmarked) [Example 82, (8-bromo-1-propyl-1,3,4,9-tetrahydropyrano[3,4-b]indol-1-yl)acetic acid]
inhibition at 20 µM: 73% | IC50: 9.2 µM
